Laboratory results as given in patent publication US5677419A, “Cyclic vasoactive peptide analogs” (Hoffmann-La Roche Inc., priority 1994, dated 1997).
Where a SMILES comes first, the peptide text is derived from it. Bridges are numbered along the chain shown (N, C = ends). [ ]: non-standard residue; d: D form. Phe(4-NH2) = Nc1ccc(C[C@H](N)C(=O)O)cc1; Phe(4-F) = N[C@@H](Cc1ccc(F)cc1)C(=O)O; 1Nal = N[C@@H](Cc1cccc2ccccc12)C(=O)O; Nle = CCCC[C@H](N)C(=O)O

Assays:
[1] = test system: guinea pig tracheal smooth muscle; assay: Tracheal relaxant activity of VIP analogs on isolated guinea pig tracheal rings; assay type: cell-based; conditions: cumulative concentration response, relaxation as % of maximum response to VIP (10^-6 M=100%), three tissues pooled, linear regression
Procedure: The relaxant activity of the VIP analogs were studied in a model utilizing guinea pig trachea. [Wasserman, M. A. et al., in Vasoactive Intestinal Peptide, S. I. Said, ed., Raven Press, New York 1982, pp 177-184] All tissues were taken from male albino guinea pig weighing 400-600 g, anesthetized with urethane (2 g/kg, i.p.). After exanguination, the trachea were removed and divided into four ring segments (3 mm length). Each ring was suspended by 30 gauge stainless steel wires in a 10 mL jacketed tissue bath and attached via 4-0 silk thread to a GRASS force displacement transducer (model FT03C, Grass Instruments Co., Quincy, Mass.), for isometric recording of tension. The smooth muscle was bathed in modified Krebs solution of the following composition: NaCl, 120 mM; KCl, 4.7 mM; CaCl2, 2.5 mM; MgSO4.7H2 O, 1.2 mM; NaHCO3, 25 mM; K2 HPO4 monobasic, 1.2 mM; and dextrose, 10 mM. Tissue baths were maintained at 37° C. and constantly bubbled with 95% O2 and 5% CO2. Responses were recorded on an 8 channel and a 4 channel HEWLETT-PACKARD (model 7702B and 7754A, respectively) recorder (Hewlett- Packard, Paramus, N.J.). Tracheal rings were placed under a resting tension of 1.5 g which was determined to be at or near optimal in preliminary experiments. Frequent readjustments of tension were required during the 60 minute stabilization period which followed. Tissues were rinsed at 15 minute intervals.
Cumulative concentration response curves were obtained for each tissue by successive […] increases in the bath concentration of VIP or VIP analogs according to the method of VanRossum [Arch. Int. Pharmacodyn., 143, 299-330 (1963)]. Only one cumulative dose response curve was obtained on a single tissue. To minimize variability between tissues, relaxant responses were expressed as a percentage of the maximum response obtained to VIP (10^-6 M=100%) added at the end of each concentration response experiment. Responses obtained from three tissues were pooled and EC50 values were determined by linear regression.
The results summarized in Table I show the tracheal relaxant activity of the VIP analogs in comparison to native VIP.

[2] = test system: guinea pigs; assay: In vivo bronchodilator activity by tracheal instillation against histamine challenge; design: species or system guinea pig; conditions: anesthetized male guinea pigs, inhibition of histamine (i.v.)-induced rise in tracheal pressure
Procedure: The in vivo bronchodilator activity of VIP and VIP analogs in guinea pigs was assessed by the tracheal instillation route of administration. This technique utilized male guinea pigs (Hartley strain, Charles River) weighing 400-600 g. Animals were anesthetized with urethane (2 g/kg) intraperitoneally and a polyethylene cannula was inserted into the jugular vein for intraveneous drug administration.
The animals were tracheotomized and dosing solutions of distilled water or test compound dissolved in distilled water were administered into the trachea, approximately three-quarters the distance to the carina with a pipette. The concentration of the dosing solution was adjusted to deliver a constant volume of […]. The animals were placed supine for one minute to aid drug delivery to the lung. One minute later, spontaneous breathing was arrested with succinylcholine chloride (1.2 mg/kg) administered intraveneously, and the animals were ventilated with a HARVARD Model 680 small animal respirator set at 40 breaths/min and 4.0 cm^3 stroke volume. The animals were challenged with a maximal constrictory dose of histamine ([…], i.v.) and tracheal pressure (cm of water) was recorded from a STATHAM pressure transducer (P 32 AA).
The change in tracheal pressure was averaged for at least 3 control and 3 drug-treated animals and percent inhibition was calculated. The relative potency of compounds administered by the instillation route was determined by administering various doses of test compound and calculating the median effective dose (ED50 value). The ED50 was determined from log dose-response curves generated by at least 3 doses that caused inhibitory effects between 10% and 90%. The correlation coefficients for the regression line of each compound was always greater than 0.95.
For determination of the time course of inhibition for various compounds, the time between administration of compound and challenge with histamine was varied. The time course of activity was calculated as the time when inhibition decreased to 40%.
The results summarized in Table II show the in vivo bronchodilator activity of the VIP analogs in comparison to native VIP.

CCCC[C@H](NC(=O)[C@@H]1CCC(=O)NCCCC[C@H](NC(=O)[C@@H](NC(=O)[C@H](Cc2ccc(O)cc2)NC(=O)[C@H](CC(N)=O)NC(=O)[C@H](CC(=O)O)NC(=O)[C@@H](NC(=O)[C@H](Cc2ccccc2)NC(=O)[C@@H](NC(=O)[C@H](C)NC(=O)[C@H](CC(=O)O)NC(=O)[C@H](CO)NC(=O)[C@H](Cc2c[nH]cn2)NC(C)=O)C(C)C)[C@@H](C)O)[C@@H](C)O)C(=O)N[C@@H](CC(C)C)C(=O)N[C@@H](CCCNC(=N)N)C(=O)N[C@@H](CCCCN)C(=O)N1)C(=O)N[C@@H](C)C(=O)N[C@H](C(=O)N[C@@H](CCCCN)C(=O)N[C@@H](CCCCN)C(=O)N[C@@H](Cc1ccc(O)cc1)C(=O)N[C@@H](CC(C)C)C(=O)N[C@@H](CC(N)=O)C(=O)N[C@@H](CO)C(=O)N[C@H](C(=O)N[C@@H](CC(C)C)C(=O)N[C@H](C(N)=O)[C@@H](C)O)C(C)C)C(C)C [SEQ ID NO:26, Ac-[Lys^12,Glu^16,Nle^17,Val^26,Thr^28]-VIP cyclo (Lys^12 →Glu^16)] (Ac-HSDAVFTDNYTKLRKE[Nle]AVKKYLNSVLT-NH2; lactam 12-16)
EC50 [1]: 37 nM
Bronchodilator activity of VIP analogs in guinea pigs, ED50 [2]: 39 μg

CCCC[C@H](NC(=O)[C@H](CCC(N)=O)NC(=O)[C@H](CCCCN)NC(=O)[C@H](CCCNC(=N)N)NC(=O)[C@H](CC(C)C)NC(=O)[C@H](CCCCN)NC(=O)[C@@H](NC(=O)[C@H](Cc1ccc(O)cc1)NC(=O)[C@H](CC(N)=O)NC(=O)[C@H](CC(=O)O)NC(=O)[C@@H](NC(=O)[C@H](Cc1ccccc1)NC(=O)[C@@H](NC(=O)[C@H](C)NC(=O)[C@H](CC(=O)O)NC(=O)[C@H](CO)NC(=O)[C@H](Cc1c[nH]cn1)NC(C)=O)C(C)C)[C@@H](C)O)[C@@H](C)O)C(=O)N[C@@H](C)C(=O)N[C@H](C(=O)N[C@H]1CCCCNC(=O)C[C@@H](C(=O)N[C@@H](CO)C(=O)N[C@H](C(=O)N[C@@H](CC(C)C)C(=O)N[C@H](C(N)=O)[C@@H](C)O)C(C)C)NC(=O)[C@H](CC(C)C)NC(=O)[C@H](Cc2ccc(O)cc2)NC(=O)[C@H](CCCCN)NC1=O)C(C)C [SEQ ID NO:27, Ac-[Lys^12,Nle^17,Asp^24,Val^26,Thr^28]-VIP cyclo (Lys^20 →Asp^24)] (Ac-HSDAVFTDNYTKLRKQ[Nle]AVKKYLDSVLT-NH2; lactam 20-24)
EC50 [1]: 5.3 nM
Bronchodilator activity of VIP analogs in guinea pigs, ED50 [2]: 2.3 μg

CCCC[C@H](NC(=O)[C@H](CCC(N)=O)NC(=O)[C@H](CCCCN)NC(=O)[C@H](CCCNC(=N)N)NC(=O)[C@H](CC(C)C)NC(=O)[C@H](CC(C)C)NC(=O)[C@@H](NC(=O)[C@H](Cc1ccc(N)cc1)NC(=O)[C@H](CC(N)=O)NC(=O)[C@H](CC(=O)O)NC(=O)[C@@H](NC(=O)[C@H](Cc1ccc(F)cc1)NC(=O)[C@@H](NC(=O)[C@H](C)NC(=O)[C@H](CC(=O)O)NC(=O)[C@H](CO)NC(=O)[C@H](Cc1c[nH]cn1)NC(C)=O)C(C)C)[C@@H](C)O)[C@@H](C)O)C(=O)N[C@@H](C)C(=O)N[C@@H](C)C(=O)N[C@@H](CCCCN)C(=O)N[C@H]1CCCCNC(=O)C[C@@H](C(=O)N[C@H](C(=O)N[C@@H](CC(C)C)C(=O)N[C@H](C(N)=O)[C@@H](C)O)C(C)C)NC(=O)[C@H](CC(N)=O)NC(=O)[C@H](CC(C)C)NC(=O)[C@H](Cc2ccc(O)cc2)NC1=O [SEQ ID NO:37, Ac-[p-F-Phe^6,p-NH2 -Phe^10,Leu^12,Nle^17,Ala^19,Asp^25,Val^26,Thr^28]-VIP cyclo (Lys^21 →Asp^25)] (Ac-HSDAV[Phe(4-F)]TDN[Phe(4-NH2)]TLLRKQ[Nle]AAKKYLNDVLT-NH2; lactam 21-25)
EC50 [1]: 4.4 nM

CCCC[C@H](NC(=O)[C@H](CCC(N)=O)NC(=O)[C@H](CCCCN)NC(=O)[C@H](CCCNC(=N)N)NC(=O)[C@H](CC(C)C)NC(=O)[C@H](CCCCN)NC(=O)[C@@H](NC(=O)[C@H](Cc1ccc(OC)cc1)NC(=O)[C@H](CC(N)=O)NC(=O)[C@H](CC(=O)O)NC(=O)[C@@H](NC(=O)[C@H](Cc1ccccc1)NC(=O)[C@@H](NC(=O)[C@H](C)NC(=O)[C@H](CC(=O)O)NC(=O)[C@H](CO)NC(=O)[C@H](Cc1c[nH]cn1)NC(C)=O)C(C)C)[C@@H](C)O)[C@@H](C)O)C(=O)N[C@@H](C)C(=O)N[C@@H](C)C(=O)N[C@@H](CCCCN)C(=O)N[C@H]1CCCCNC(=O)C[C@@H](C(=O)N[C@H](C(=O)N[C@@H](CC(C)C)C(=O)N[C@H](C(N)=O)[C@@H](C)O)C(C)C)NC(=O)[C@H](CC(N)=O)NC(=O)[C@H](CC(C)C)NC(=O)[C@H](Cc2ccc(O)cc2)NC1=O [SEQ ID NO:41, Ac-[O-Me-Tyr^10,Lys^12,Nle^17,Ala^19,Asp^25,Val^26,Thr^28]-VIP cyclo (Lys^21 →Asp^25)] (Ac-HSDAVFTDNY(Me)TKLRKQ[Nle]AAKKYLNDVLT-NH2; lactam 21-25)
EC50 [1]: 2.6 nM

CCCC[C@H](NC(=O)[C@H](CCC(N)=O)NC(=O)[C@H](CCCCN)NC(=O)[C@H](CCCNC(=N)N)NC(=O)[C@H](CC(C)C)NC(=O)[C@H](CCCCN)NC(=O)[C@@H](NC(=O)[C@H](Cc1ccc(O)cc1)NC(=O)[C@H](CC(N)=O)NC(=O)[C@H](CC(=O)O)NC(=O)[C@@H](NC(=O)[C@H](Cc1cccc2ccccc12)NC(=O)[C@@H](NC(=O)[C@H](C)NC(=O)[C@H](CC(=O)O)NC(=O)[C@H](CO)NC(=O)[C@H](Cc1c[nH]cn1)NC(C)=O)C(C)C)[C@@H](C)O)[C@@H](C)O)C(=O)N[C@@H](C)C(=O)N[C@@H](C)C(=O)N[C@@H](CCCCN)C(=O)N[C@H]1CCCCNC(=O)C[C@@H](C(=O)N[C@H](C(=O)N[C@@H](CC(C)C)C(=O)N[C@H](C(N)=O)[C@@H](C)O)C(C)C)NC(=O)[C@H](CC(N)=O)NC(=O)[C@H](CC(C)C)NC(=O)[C@H](Cc2ccc(O)cc2)NC1=O [SEQ ID NO:50, Ac-[1-Nal^6,Lys^12,Nle^17,Ala^19,Asp^25,Val^26,Thr^28]-VIP cyclo (Lys^21 →Asp^25)] (Ac-HSDAV[1Nal]TDNYTKLRKQ[Nle]AAKKYLNDVLT-NH2; lactam 21-25)
EC50 [1]: 2.9 nM

CCCC[C@H](NC(=O)[C@H](C)NC(=O)[C@H](CCCCN)NC(=O)[C@H](CCCNC(=N)N)NC(=O)[C@H](CC(C)C)NC(=O)[C@H](CCCCN)NC(=O)[C@@H](NC(=O)[C@H](Cc1ccc(O)cc1)NC(=O)[C@H](CC(N)=O)NC(=O)[C@H](CCC(=O)O)NC(=O)[C@@H](NC(=O)[C@H](Cc1ccccc1)NC(=O)[C@@H](NC(=O)[C@H](C)NC(=O)[C@H](CC(=O)O)NC(=O)[C@H](CO)NC(=O)[C@H](Cc1c[nH]cn1)NC(C)=O)C(C)C)[C@@H](C)O)[C@@H](C)O)C(=O)N[C@@H](C)C(=O)N[C@@H](C)C(=O)N[C@@H](CCCCN)C(=O)N[C@H]1CCCCNC(=O)C[C@@H](C(=O)N[C@@H](CC(C)C)C(=O)N[C@@H](CCCCN)C(=O)N[C@@H](CCCCN)C(N)=O)NC(=O)[C@H](CC(N)=O)NC(=O)[C@H](CC(C)C)NC(=O)[C@H](Cc2ccc(O)cc2)NC1=O [SEQ ID NO:63, Ac-[Glu^8,Lys^12,Ala^16,Nle^17,Ala^19,Asp^25,Leu^26,Lys^27,28]-VIP cyclo (Lys^21 →Asp^25)] (Ac-HSDAVFTENYTKLRKA[Nle]AAKKYLNDLKK-NH2; lactam 21-25)
EC50 [1]: 0.9 nM
